Here are results for 12 compounds from publication PMC8633346, “Engineering of a fluorescent chemogenetic reporter with tunable color for advanced live-cell imaging” (Nature Communications, 2021).

One experiment concerns the target T1, pFAST (Halorhodospira halophila, UniProt P16113, A30V/C69G/D97P/F96I/G21E/G25R/K17N/M100R/M109L/Q41L/Q99S/S117R/S72T/T101G/V83A/Y94W/Y98T).
T1 construct: gene pyp; engineered PYP variant; changes relative to FAST: K17N, G21E, G25R, A30V, Q41L, S72T, V83A, M95T, M109L, S117R (M95T restores T95 of PYP); N-terminal His-tag, E. coli Rosetta (DE3) pLys, Ni-NTA; FAST 14 kDa
T1 sequence (P16113 1-125 K17N/G21E/G25R/A30V/Q41L/C69G/S72T/V83A/Y94W/F96I/D97P/Y98T/Q99S/M100R/T101G/M109L/S117R): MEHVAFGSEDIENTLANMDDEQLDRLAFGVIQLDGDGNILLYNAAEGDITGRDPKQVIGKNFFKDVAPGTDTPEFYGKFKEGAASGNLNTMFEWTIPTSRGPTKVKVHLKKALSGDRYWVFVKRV
In words: fluorescence titration, one-site fit.
Conditions: not given
`COc1cc(C=C2SC(=S)NC2=O)cc(OC)c1O` [HBR-3,5DOM, 4-hydroxy-3,5-dimethoxybenzylidene rhodanine]: binding was put at a Kd of 60 nM. On the same count and under the same terms, in the case of `Cc1cc(C=C2SC(=N)NC2=O)cc(C)c1O` [HBP-3,5DM, (4-hydroxy-3,5-dimethylbenzylidene)-2-iminothiazolidin-4-one] it was 150 nM. Still for that read-out and setting: in the case of `Cc1cc(C=C2SC(=O)NC2=O)cc(C)c1O` [HBT-3,5DM, (4-hydroxy-3,5-dimethylbenzylidene)thiazolidine-2,4-dione] it was 170 nM.

`Cc1cc(C=C2OC(=O)NC2=O)cc(C)c1O` [HBO-3,5DM, (4-hydroxy-3,5-dimethylbenzylidene)oxazolidine-2,4-dione] registered a dissociation constant (Kd) of 2400 nM. On the same count and under the same terms, in the case of `Cc1cc(/C=C2\SC(=S)N(CC(=O)O)C2=O)cc(C)c1O` [HBRAA-3,5DM, 5-((4-hydroxy-3,5-dimethylbenzylidene)-4-oxo-2-thioxothiazolidin-3-yl) acetic acid] it was 1800 nM; in that of `Cc1cc(C=C2SC(=S)NC2=O)cc(C)c1O` [HBR-3,5DM, 4-hydroxy-3,5-dimethylbenzylidene rhodanine], 10 nM; in that of `COc1cc(C=C2SC(=N)NC2=O)cc(OC)c1O` [HBP-3,5DOM, (4-hydroxy-3,5-dimethoxybenzylidene)-2-iminothiazolidin-4-one], 1900 nM. On the same count and under the same terms, in the case of `COc1cc(C=C2SC(O)=NC2=S)cc(OC)c1O` [HBIR-3,5DOM, (4-hydroxy-3,5-dimethoxylbenzylidene)-4-thioxothiazolidin-2-one] it was 40 nM. Turning to `Cc1cc(C=C2OC(=O)NC2=O)ccc1O` [HBO-3M, (4-hydroxy-3-methylbenzylidene)oxazolidine-2,4-dione], binding was put at a Kd of 430 nM.

`Cc1cc(C=C2SC(=N)NC2=O)ccc1O` [HBP-3M, (4-hydroxy-3-methylbenzylidene)-2-iminothiazolidin-4-one]: the Kd turned out to be 220 nM. Same read-out and setting: in the case of `COc1cc(/C=C2\SC(=O)NC2=O)cc(OC)c1O` [HBT-3,5DOM, (4-hydroxy-3,5-dimethoxybenzylidene)thiazolidine-2,4-one] it was 200 nM.

The target in a further experiment is T2, pFAST (Halorhodospira halophila, UniProt P16113, K17N/G21E/G25R/A30V/Q41L/C69G/S72T/V83A/Y94W/F96I/D97P/Y98T/Q99S/M100R/T101G/M109L/S117R).
T2 construct: gene pyp; engineered PYP variant; changes relative to FAST: K17N, G21E, G25R, A30V, Q41L, S72T, V83A, M95T, M109L, S117R (M95T restores T95 of PYP); N-terminal His-tag, E. coli Rosetta (DE3) pLys, Ni-NTA; FAST 14 kDa
T2 sequence (P16113 1-125 K17N/G21E/G25R/A30V/Q41L/C69G/S72T/V83A/Y94W/F96I/D97P/Y98T/Q99S/M100R/T101G/M109L/S117R): T1 sequence (P16113 1-125 K17N/G21E/G25R/A30V/Q41L/C69G/S72T/V83A/Y94W/F96I/D97P/Y98T/Q99S/M100R/T101G/M109L/S117R)
In words: fluorescence titration, one-site fit. Format: binding. The note with it: PBS pH 7.4.
With `Cc1cc(C=C2SC(=O)NC2=O)ccc1O` [HBT-3M, (4-hydroxy-3-methylbenzylidene)thiazolidine-2,4-dione], the KD entry was “KD) values of their assembly with pFAST are indicated into brackets”.
